{"source": "paper PMC8778818", "about": "“Synthesis, Structural Characterization and Anticancer Activity of New 5-Trifluoromethyl-2-thioxo-thiazolo[4,5-d]pyrimidine Derivatives” (Pharmaceuticals, 2022)", "key": {"CCRF-CEM": {"system": "CCRF-CEM", "assay": "NCI-60 screen, Leukemia CCRF-CEM", "type": "cell-based, human"}, "IGROV1": {"system": "IGROV1", "assay": "NCI-60 screen, Ovarian Cancer IGROV1", "type": "cell-based"}, "SF-539": {"system": "SF-539", "assay": "NCI-60 screen, CNS Cancer SF-539", "type": "cell-based, human"}, "OVCAR-3": {"system": "OVCAR-3", "assay": "NCI-60 screen, Ovarian Cancer OVCAR-3", "type": "cell-based, human"}, "A549/ATCC": {"system": "A549/ATCC", "assay": "NCI-60 screen, Non-Small Cell Lung Cancer A549/ATCC", "type": "cell-based, human"}, "NCI/ADR-RES": {"system": "NCI/ADR-RES", "assay": "NCI-60 screen, Ovarian Cancer NCI/ADR-RES", "type": "cell-based, human"}, "CAKI-1": {"system": "CAKI-1", "assay": "NCI-60 screen, Renal Cancer CAKI-1", "type": "cell-based, human"}, "NCI-H226": {"system": "NCI-H226", "assay": "NCI-60 screen, Non-Small Cell Lung Cancer NCI-H226", "type": "cell-based, human"}, "HCT-15": {"system": "HCT-15", "assay": "NCI-60 screen, Colon Cancer HCT-15", "type": "cell-based"}, "LOX IMVI": {"system": "LOX IMVI", "assay": "NCI-60 screen, Melanoma LOX IMVI", "type": "cell-based, human"}, "OVCAR-4": {"system": "OVCAR-4", "assay": "NCI-60 screen, Ovarian Cancer OVCAR-4", "type": "cell-based, human"}, "[1]": {"details": "Homo sapiens, five doses 10^−4–10^−8 M"}, "[2]": {"details": "Homo sapiens, five doses 10^−4–10^−8 M, read-out: log LC50 (the source's name) (converted)"}}}
{"smiles": "FC(F)(F)c1nc(Cl)c2sc(=S)n(-c3ccccc3)c2n1", "note": "[Compound 3b, 7-chloro-3-phenyl-5-(trifluoromethyl)[1, 3]thiazolo[4,5-d]pyrimidine-2(3H)-thione]", "values": [{"measurement": "Growth of Cells (%)", "setting": "CCRF-CEM; 10^−5 M one dose", "value": "−51.41", "unit": "%"}, {"measurement": "GI50", "setting": "CCRF-CEM; [1]", "value": 0.933, "unit": "µM"}, {"measurement": "CC50", "setting": "CCRF-CEM; [2]", "value": "> 100", "unit": "µM"}, {"measurement": "log TGI", "setting": "CCRF-CEM; five doses 10^−4–10^−8 M", "value": "−5.50", "unit": "log M"}, {"measurement": "GI50", "setting": "IGROV1; Homo sapiens, IGROV-1, IGROV1, five doses 10^−4–10^−8 M", "value": 1.95, "unit": "µM"}, {"measurement": "CC50", "setting": "IGROV1; Homo sapiens, IGROV-1, IGROV1, five doses 10^−4–10^−8 M, read-out: log LC50 (the source's name) (converted)", "value": 7.59, "unit": "µM"}, {"measurement": "Growth of Cells (%)", "setting": "IGROV1; IGROV1, 10^−5 M one dose", "value": 63.57, "unit": "%"}, {"measurement": "log TGI", "setting": "IGROV1; IGROV1, five doses 10^−4–10^−8 M", "value": "−5.41", "unit": "log M"}, {"measurement": "GI50", "setting": "SF-539; Homo sapiens, SF-539, five doses 10^−4–10^−8 M", "value": 1.66, "unit": "µM"}, {"measurement": "CC50", "setting": "SF-539; Homo sapiens, SF-539, five doses 10^−4–10^−8 M, read-out: log LC50 (the source's name) (converted)", "value": 5.89, "unit": "µM"}, {"measurement": "Growth of Cells (%)", "setting": "SF-539; SF-539, 10^−5 M one dose", "value": 75.80, "unit": "%"}, {"measurement": "log TGI", "setting": "SF-539; SF-539, five doses 10^−4–10^−8 M", "value": "−5.50", "unit": "log M"}, {"measurement": "GI50", "setting": "OVCAR-3; Homo sapiens, OVCAR-3, five doses 10^−4–10^−8 M", "value": 1.91, "unit": "µM"}, {"measurement": "CC50", "setting": "OVCAR-3; Homo sapiens, OVCAR-3, five doses 10^−4–10^−8 M, read-out: log LC50 (the source's name) (converted)", "value": 6.03, "unit": "µM"}, {"measurement": "Growth of Cells (%)", "setting": "OVCAR-3; OVCAR-3, 10^−5 M one dose", "value": "−41.27", "unit": "%"}, {"measurement": "log TGI", "setting": "OVCAR-3; OVCAR-3, five doses 10^−4–10^−8 M", "value": "−5.47", "unit": "log M"}, {"measurement": "Growth of Cells (%)", "setting": "A549/ATCC; 10^−5 M one dose", "value": 91.16, "unit": "%"}, {"measurement": "GI50", "setting": "A549/ATCC; [1]", "value": 7.59, "unit": "µM"}, {"measurement": "LC50", "setting": "A549/ATCC; [1]", "value": 53.7, "unit": "µM"}, {"measurement": "log TGI", "setting": "A549/ATCC; five doses 10^−4–10^−8 M", "value": "−4.66", "unit": "log M"}, {"measurement": "Growth of Cells (%)", "setting": "NCI/ADR-RES; 10^−5 M one dose", "value": 109.92, "unit": "%"}, {"measurement": "GI50", "setting": "NCI/ADR-RES; [1]", "value": 3.31, "unit": "µM"}, {"measurement": "CC50", "setting": "NCI/ADR-RES; [2]", "value": "> 100", "unit": "µM"}, {"measurement": "log TGI", "setting": "NCI/ADR-RES; five doses 10^−4–10^−8 M", "value": "−4.96", "unit": "log M"}, {"measurement": "Growth of Cells (%)", "setting": "CAKI-1; CAKI-1, 10^−5 M one dose", "value": 81.74, "unit": "%"}, {"measurement": "log TGI", "setting": "CAKI-1; CAKI-1, five doses 10^−4–10^−8 M", "value": "−5.51", "unit": "log M"}, {"measurement": "GI50", "setting": "CAKI-1; Homo sapiens, CAKI-1, five doses 10^−4–10^−8 M", "value": 1.66, "unit": "µM"}, {"measurement": "CC50", "setting": "CAKI-1; Homo sapiens, CAKI-1, five doses 10^−4–10^−8 M, read-out: log LC50 (the source's name) (converted)", "value": 5.75, "unit": "µM"}, {"measurement": "GI50", "setting": "NCI-H226; Homo sapiens, NCI-H226, five doses 10^−4–10^−8 M", "value": 13.8, "unit": "µM"}, {"measurement": "CC50", "setting": "NCI-H226; Homo sapiens, NCI-H226, five doses 10^−4–10^−8 M, read-out: log LC50 (the source's name) (converted)", "value": "> 100", "unit": "µM"}, {"measurement": "Growth of Cells (%)", "setting": "NCI-H226; NCI-H226, 10^−5 M one dose", "value": 89.12, "unit": "%"}, {"measurement": "log TGI", "setting": "NCI-H226; NCI-H226, five doses 10^−4–10^−8 M", "value": "−4.31", "unit": "log M"}, {"measurement": "Growth of Cells (%)", "setting": "HCT-15; HCT-15, 10^−5 M one dose", "value": 2.98, "unit": "%"}, {"measurement": "log TGI", "setting": "HCT-15; HCT-15, five doses 10^−4–10^−8 M", "value": "−5.26", "unit": "log M"}, {"measurement": "GI50", "setting": "HCT-15; Homo sapiens, HCT-15, read-out: log GI50 (converted)", "value": 1.86, "unit": "µM"}, {"measurement": "CC50", "setting": "HCT-15; Homo sapiens, HCT-15, five doses 10^−4–10^−8 M, read-out: log LC50 (the source's name) (converted)", "value": "> 100", "unit": "µM"}, {"measurement": "Growth of Cells (%)", "setting": "LOX IMVI; 10^−5 M one dose", "value": 3.11, "unit": "%"}, {"measurement": "GI50", "setting": "LOX IMVI; [1]", "value": 1.78, "unit": "µM"}, {"measurement": "LC50", "setting": "LOX IMVI; [1]", "value": 6.17, "unit": "µM"}, {"measurement": "log TGI", "setting": "LOX IMVI; five doses 10^−4–10^−8 M", "value": "−5.48", "unit": "log M"}, {"measurement": "GI50", "setting": "OVCAR-4; Homo sapiens, OVCAR-4, five doses 10^−4–10^−8 M", "value": 1.78, "unit": "µM"}, {"measurement": "CC50", "setting": "OVCAR-4; Homo sapiens, OVCAR-4, five doses 10^−4–10^−8 M, read-out: log LC50 (the source's name) (converted)", "value": 7.24, "unit": "µM"}, {"measurement": "Growth of Cells (%)", "setting": "OVCAR-4; OVCAR-4, 10^−5 M one dose", "value": 23.73, "unit": "%"}]}
